According to patent US4731241A, “Percutaneous pharmaceuticals preparation for external use” (priority 1983, dated 1988):
Like-named read-outs stand apart in the source and are kept apart here.

What was measured:
[1] = format: in vivo, male SD-JCL rats; conditions: rat
Method: Five male SD-JCL rats with a mean body weight of 250 g were anesthetized with pentobarbital and the abdominal hairs were clipped with an electric clipper (20 cm^2 5×4 cm). Each of coating samples A though D was then coated on the clipped area. At 1, 2, 4 and 6 hours after application (till 8 hours for evaluation of sustained effect), 0.5 ml of venous blood was collected from the tail vain of each rat and the plasma concentration of molsidomine was determined by the following procedure.
In a mixture of 20 mg of lauric acid, which is a percutaneous absorption promotor according to this invention, and 177 mg of propylene glycol was dissolved 3 mg of clonidine to prepare a coating sample. Using this sample, a percutaneous absorption test was conducted in the same manner as Example 1. The plasma concentration of clonidine was determined by the following procedure.
The venous blood was centrifuged and the plasma was separated. A 0.2 ml of the plasma was extracted with 1 ml of 0.01 N NaOH and 5 ml of chloroform, and from 4 ml of the chloroform layer, the chloroform was evaporated. The residue was dissolved in 0.2 ml of a mixture of 0.05 M sodium acetate, acetonitrile and tetrahydrofuran (70:30:0.2, v/v), and 50 μl of this solution was subjected to liquid chromatography to determine the clonidine concentration. A column of μ-Bondapak C18 was employed. The evaluation of percutaneous absorption was carried out in the same manner as described in Example 1. […] Similar tests were conducted using oleic acid, lauryl alcohol, oleinamide and laurylamine as well but all of them were ineffective for clonidine as […].

[2] = Text: Then, the present inventors attempted at a systematic classification of compounds which could contribute to the percutaneous absorption of molsidomine and performed a series of experiments.
[3] = cited from earlier work

Structure (SMILES): Clc1cccc(Cl)c1N=C1NCCN1 [clonidine]
- clonidine detection in the blood ([1]; 3 mg clonidine, 20 mg lauric acid, 177 mg propylene glycol, percutaneous): not detected

Structure (SMILES): OCC(O)CO [glycerin]
- promotion of percutaneous absorption of molsidomine ([2]; added to molsidomine): none of them proved meaningfully effective

Structure (SMILES): CCCCCCCCCCCC(=O)O [lauric acid]
- effectiveness as percutaneous absorption promoter for clonidine ([1]; percutaneous, clonidine): not effective

Structure (SMILES): CCCCCCCCCCCCO [lauryl alcohol]
- effectiveness as percutaneous absorption promoter for clonidine ([1]; percutaneous, clonidine): ineffective

Structure (SMILES): CCCCCCCCCCCCN [laurylamine]
- effectiveness as percutaneous absorption promoter for clonidine ([1]; percutaneous, clonidine): ineffective

Structure (SMILES): COC(=O)c1ccccc1O [methyl salicylate]
- promotion of percutaneous absorption of molsidomine [2]: none of them proved meaningfully effective

Structure (SMILES): CCOC(=O)[N-]c1cn(N2CCOCC2)n[o+]1 [molsidomine, N-ethoxycarbonyl-3-morpholinosydnonimine]
- side effects ([3]; background): few side effects
- vasodilator activity ([3]; background): excellent vasodilator activity
- percutaneous absorption of molsidomine administered alone ([3]; percutaneous route, alone): not well absorbed

Structure (SMILES): CCCCCCCC/C=C\CCCCCCCC(=O)O [oleic acid]
- effectiveness as percutaneous absorption promoter for clonidine ([1]; in vivo): ineffective

Structure (SMILES): CCCCCCCC/C=C\CCCCCCCC(N)=O [oleinamide]
- effectiveness as percutaneous absorption promoter for clonidine ([1]; percutaneous, clonidine): ineffective

Structure (SMILES): CC(O)CO (centres unmarked) [propylene glycol]
- promotion of percutaneous absorption of molsidomine ([2]; added to molsidomine): none of them proved meaningfully effective

Structure (SMILES): O=C(O)c1ccccc1O [salicylic acid]
- promotion of percutaneous absorption of molsidomine ([2]; added to molsidomine): none of them proved meaningfully effective

Structure (SMILES): OC[C@@H](O)[C@@H](O)[C@H](O)[C@@H](O)CO [sorbitol]
- promotion of percutaneous absorption of molsidomine [2]: none of them proved meaningfully effective
